Broadly, the IC50 is the point on the concentration scale where inhibition reaches its midpoint. For orientation: melting point means the temperature of the solid-liquid transition.

Each structure is given as a SMILES string. Where a name gives a salt, the structure may show the parent alone. Where only a bound is given, the exact number is not on record here.

One data set addresses T1, human 5-HT1A receptor (Homo sapiens, UniProt P08908).
T1 construct: expressed in transfected cells; host or cells: CHO cells (stably transfected)
T1 sequence (P08908 1-422): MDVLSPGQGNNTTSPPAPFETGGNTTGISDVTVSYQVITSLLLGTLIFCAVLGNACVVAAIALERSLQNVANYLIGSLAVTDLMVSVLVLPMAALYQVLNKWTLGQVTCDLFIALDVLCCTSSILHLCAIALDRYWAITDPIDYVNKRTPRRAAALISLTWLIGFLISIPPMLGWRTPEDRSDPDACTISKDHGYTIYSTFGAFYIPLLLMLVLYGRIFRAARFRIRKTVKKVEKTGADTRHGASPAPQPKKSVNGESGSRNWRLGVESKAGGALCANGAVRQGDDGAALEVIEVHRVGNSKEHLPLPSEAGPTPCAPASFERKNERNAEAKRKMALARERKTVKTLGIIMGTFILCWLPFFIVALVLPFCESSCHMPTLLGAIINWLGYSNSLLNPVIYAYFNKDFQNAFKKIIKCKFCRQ
Briefly: Displacement of [3H] 8-OHDPAT from the 5-HT1A receptor in transfected CHO cells. In kind it is binding. The note with it: displacement of [3H] 8-OHDPAT; CHO cells stably transfected with the human 5-HT1A receptor; read-out: 5-HT1A Affinity (IC50). From the text: Affinity for the serotonin 5-HT1A receptor was established by assaying the test compound's ability to displace [^3H] 8-OHDPAT from its binding site on the receptor complex in CHO cells stably transfected with the human 5-HT1A receptor following the procedure described by J. Dunlop, Y. Zhang, D. Smith and L. Schechter (Eur. J. Pharmacol., submitted; variation of a procedure described by J. Zgombick et al., Naunyn-Schmiedeberg's Arch. Pharmacol., 354, 226-236 (1996)).
(In general: Displacement assays read how much labelled ligand stays bound in the presence of the test substance.)
Take `COc1ccccc1N1CCN(C[C@@H](CC2CCCCC2)NC(=O)C2(C)CCCCC2)CC1` [Example 2, 1-Methyl-cyclohexanecarboxylic Acid of {(1R)-1-Cyclohexylmethyl-2-[4-(2-methoxyphenyl)-piperazin-1-yl]-ethyl}-amide]: the IC50 was found to be 1.23 nM.

With `CN(C(=O)C1(C)CCCCC1)[C@H](CC1CCCCC1)CN1CCN(c2cccc3[nH]ccc23)CC1` [Example 8], the IC50 came out at 32.7 nM.

Take `O=C(N[C@H](CC1CCCCC1)CN1CCN(c2nccc3ccccc23)CC1)C1CCCCC1` [Example 14, Cyclohexanecarboxylic Acid {(1R)-1-Cyclohexylmethyl-2-[4-(isoquinolin-1-yl)-piperazin-1-yl]-ethyl}-amide]: the IC50 came out at 1.69 nM. Still for that read-out and setting: as for `COc1ccccc1C1CCN(C[C@@H](CC2CCCCC2)N(C)C(=O)C(C)(C)C)CC1` [Example 20, N-{(1R)-1-Cyclohexylmethyl-2-[4-(2-methoxyphenyl)-piperidin-1-yl]-ethyl}-2,2,N-trimethyl-propionamide], the figure is 5 nM.

System in the next data set: not given
Experiment: not given
Conditions: not given
For the compound `COc1ccccc1N1CCN(C[C@@H](CC2CCCCC2)NC(=O)C2(C)CCCCC2)CC1` (as salt: hydrochloride) (hydrate or solvate) [Example 2, 1-Methyl-cyclohexanecarboxylic Acid of {(1R)-1-Cyclohexylmethyl-2-[4-(2-methoxyphenyl)-piperazin-1-yl]-ethyl}-amide], the melting point was in the range of 119 to 121 °C.

Compound `CN(C(=O)C1CCCCC1)[C@H](CC1CCCCC1)CN1CCN(c2cccc3c2OCCO3)CC1` (as salt: hydrochloride) (hydrate or solvate) [Example 5] showed a melting point of 147 to 148 °C. Still for that read-out and setting: as for `CN(C(=O)C1CCCCC1)[C@H](CC1CCCCC1)CN1CCN(c2cccc3[nH]ccc23)CC1` (as salt: hydrochloride) (hydrate or solvate) [Example 7, Cyclohexanecarboxylic Acid {(1R)-1-Cyclohexylmethyl-2-[4-(1H-indol-4-yl)-piperazin-1-yl]-ethyl}-methyl-amide], the figure is over 260 °C.

With `COc1ccccc1N1CCN(C[C@@H](CC2CCCCC2)NC=O)CC1` (as salt: hydrochloride) (hydrate or solvate) [Example 9, N-{(1R)-1-Cyclohexylmethyl-2-[4-(2-methoxyphenyl)-piperazin-1-yl]-ethyl}-formamide], the melting point is 157 to 159 °C. Regarding `COc1ccccc1C1CCN(C[C@@H](CC2CCCCC2)NC(=O)C2CCCCC2)CC1` (as salt: hydrochloride) (hydrate or solvate) [Example 15, Cyclohexanecarboxylic Acid {(1R)-1-Cyclohexylmethyl-2-[4-(2-methoxyphenyl)-piperidin-1-yl]-ethyl}-amide], the melting point was in the range of 100 to 103 °C.

The compound `COc1ccccc1C1CCN(C[C@@H](CC2CCCCC2)NC(=O)C2(C)CCCCC2)CC1` (as salt: hydrochloride) (hydrate or solvate) [Example 16, 1-Methyl-cyclohexanecarboxylic acid {(1R)-1-cyclohexylmethyl-2-[4-(2-methoxyphenyl)-piperidin-1-yl]-ethyl}-amide] yielded a melting point of 208 to 210 °C. Compound `COc1ccccc1C1CCN(C[C@@H](CC2CCCCC2)N(C)C(=O)C2CCCCC2)CC1` (as salt: hydrochloride) (hydrate or solvate) [Example 17, Cyclohexanecarboxylic Acid {(1R)-1-Cyclohexylmethyl-2-[4-(2-methoxyphenyl)-piperidin-1-yl]-ethyl}-methyl-amide] registered a melting point of 135 to 137 °C.

For `COc1ccccc1C1CCN(C[C@@H](CC2CCCCC2)N(C)C(=O)C2(C)CCCCC2)CC1` (as salt: hydrochloride) (hydrate or solvate) [Example 18, 1-Methyl-cyclohexanecarboxylic Acid {(1R)-1-Cyclohexylmethyl-2-[4-(2-methoxypheniyl)-piperidin-1-yl]-ethyl}-methyl-amide], the melting point fell in the range of 169 to 171 °C. The compound `COc1ccccc1C1CCN(C[C@@H](CC2CCCCC2)NC(=O)C(C)(C)C)CC1` (as salt: hydrochloride) (hydrate or solvate) [Example 19, N-{(1R)-1-Cyclohexylmethyl-2-[4-(2-methoxyphenyl)-piperidin-1-yl]-ethyl}-2,2-dimethyl-propionamide] gave a melting point of 97 to 99 °C. On the same count and under the same terms, as for `COc1ccccc1C1CCN(C[C@@H](CC2CCCCC2)N(C)C(=O)C(C)(C)C)CC1` (as salt: hydrochloride) (hydrate or solvate) [Example 20, N-{(1R)-1-Cyclohexylmethyl-2-[4-(2-methoxyphenyl)-piperidin-1-yl]-ethyl}-2,2,N-trimethyl-propionamide], the figure is 233 to 236 °C; as for `COc1ccccc1C1=CCN(C[C@@H](CC2CCCCC2)NC(=O)C2(C)CCCCC2)CC1` (as salt: hydrochloride) (hydrate or solvate) [Example 21, 1-Methyl-cyclohexanecarboxylic Acid {(1R)-1-Cyclohexylmethyl-2-[4-(2-methoxyphenyl)-3,6-dihydro-2H-pyridin-1-yl]-ethyl}-amide], 93 to 95 °C; as for `COc1ccccc1N1CCN(C[C@@H](CC2CCCCC2)NC(=O)C2CCCCC2)CC1` (as salt: hydrochloride) [Example 1, Cyclohexanecarboxylic Acid {(1R)-1-Cyclohexylmethyl-2-[4-(2-methoxyphenyl)-piperazin-1-yl]-ethyl}-amide], 121 to 131 °C.

Take `COc1ccccc1N1CCN(C[C@@H](CC2CCCCC2)N(C)C(=O)C2CCCCC2)CC1` (as salt: hydrochloride) [Example 3, Cyclohexanecarboxylic Acid {(1R)-1-Cyclohexylmethyl-2-[4-(2-methoxyphenyl)-piperazin-1-yl]-ethyl}-methyl-amide]: the melting point is 222 to 224 °C. On the same count and under the same terms, as for `COc1ccccc1N1CCN(C[C@@H](CC2CCCCC2)N(C)C(=O)C2(C)CCCCC2)CC1` (as salt: hydrochloride) [Example 4, 1-Methyl-cyclohexanecarboxylic Acid {(1R)-1-Cyclohexylmethyl-2-[4-(2-methoxyphenyl)-piperazin-1-yl]-ethyl}-methyl-amide], the figure is 208 to 210 °C; as for `CN(C(=O)C1(C)CCCCC1)[C@H](CC1CCCCC1)CN1CCN(c2cccc3c2OCCO3)CC1` (as salt: hydrochloride) [Example 6, 1-Methyl-cyclohexanecarboxylic Acid {(1R)-1-Cyclohexylmethyl-2-[4-(2,3-dihydro-benzo[1,4]dioxin-5-yl)-piperazin-1-yl]-ethyl}-methyl-amide], 219 to 220 °C. `CN(C(=O)C1(C)CCCCC1)[C@H](CC1CCCCC1)CN1CCN(c2cccc3[nH]ccc23)CC1` (as salt: hydrochloride) [Example 8] had a melting point of 253 to 254 °C.

Take `O=C(N[C@H](CC1CCCCC1)CN1CCN(c2ncccn2)CC1)C1CCCCC1` (as salt: hydrochloride) [Example 10, Cyclohexanecarboxylic Acid {(1R)-1-Cyclohexylmethyl-2-[4-(pyrimidin-2-yl)-piperazin-1-yl]-ethyl}-amide]: the melting point lay within 121 to 123 °C.

As to `O=C(N[C@H](CC1CCCCC1)CN1CCN(c2ncccn2)CC1)C1CCC1` (as salt: hydrochloride) [Example 11, Cyclobutane Carboxylic Acid {(1R)-1-Cyclohexylmethyl-2-[4-(pyrimidin-2-yl)-piperazin-1-yl]-ethyl}-amide], the melting point was 112 to 114 °C. Take `COc1cccc(N2CCN(C[C@H](CC3CCCCC3)NC(=O)C3CCCCC3)CC2)n1` (as salt: hydrochloride) [Example 12, Cyclohexane Carboxylic Acid {(1S)-1-Cyclohexylmethyl-2-[4-(6methoxypyridin-2-yl)-piperazin-1-yl]-ethyl}-amide]: the melting point lay within 107 to 109 °C.

Turning to `O=C(N[C@H](CC1CCCCC1)CN1CCN(c2nc3ccccc3s2)CC1)C1CCCCC1` (as salt: hydrochloride) [Example 13, Cyclohexanecarboxylic Acid {(1R)-1-Cyclohexylmethyl-2-[4-(benzothiazol-2-yl)-piperazin-1-yl]-ethyl}-amide], the melting point fell in the range of 229 to 232 °C.

`O=C(N[C@H](CC1CCCCC1)CN1CCN(c2nccc3ccccc23)CC1)C1CCCCC1` (as salt: hydrochloride) [Example 14, Cyclohexanecarboxylic Acid {(1R)-1-Cyclohexylmethyl-2-[4-(isoquinolin-1-yl)-piperazin-1-yl]-ethyl}-amide] yielded a melting point of 155 to 159 °C.

The target of a further data set is T1, human 5-HT1A receptor. Put plainly: Antagonist activity: antagonism of 8-OHDPAT inhibition of forskolin-stimulated cAMP accumulation in transfected CHO cells. It is filed as cell-based. The conditions noted are these: CHO cells with human 5-HT1A receptor. From the text: Methods, 40, 47-55 (1998); variation of a procedure described by J. Zgombick et al., Naunyn-Schmiedeberg's Arch. Pharmacol., 354, 226-236 (1996)].
For orientation: Changes in cAMP serve as a functional read-out for many G protein-coupled receptors.
`COc1ccccc1N1CCN(C[C@@H](CC2CCCCC2)NC(=O)C2(C)CCCCC2)CC1` [Example 2, 1-Methyl-cyclohexanecarboxylic Acid of {(1R)-1-Cyclohexylmethyl-2-[4-(2-methoxyphenyl)-piperazin-1-yl]-ethyl}-amide] had an IC50 of 14.6 nM.

Values taken from patent publication US6518272B2, “Cycloalkyl-substituted aryl-piperazines, piperidines and tetrahydropyridines as serotonergic agents” (Wyeth, priority 1998, dated 2003).
